From PubChem BioAssay AID1259407 (Chemical Carcinogenesis Research Information System (CCRIS), 2018)
Activity calls are given as the source filed them. No rule for the calls is given here.

System: CCRIS mutagenicity, Ames/micronucleus/aberration tests
Assay: CCRIS mutagenicity studies
[1] = Test System: AMES SALMONELLA TYPHIMURIUM, Strain/Indicator: TA98, Metabolic Activation: NONE, Method: PREINCUBATION
[2] = Test System: AMES SALMONELLA TYPHIMURIUM, Strain/Indicator: TA98, Metabolic Activation: NONE, Method: STANDARD PLATE
[3] = Test System: AMES SALMONELLA TYPHIMURIUM, Strain/Indicator: TA100, Metabolic Activation: NONE, Method: STANDARD PLATE
[4] = Test System: AMES SALMONELLA TYPHIMURIUM, Strain/Indicator: TA1537, Metabolic Activation: NONE, Method: STANDARD PLATE
[5] = Test System: AMES SALMONELLA TYPHIMURIUM, Strain/Indicator: TA98, Metabolic Activation: RAT, LIVER, S-9, AROCLOR 1254, Method: STANDARD PLATE
[6] = Test System: AMES SALMONELLA TYPHIMURIUM, Strain/Indicator: TA1535, Metabolic Activation: NONE, Method: STANDARD PLATE

What does the source list for `O=[N+]([O-])c1ccc(-[n+]2nc(-c3ccccc3)nn2-c2ccc(I)cc2)cc1`?
mutagenic call (Test System: AMES SALMONELLA TYPHIMURIUM, Strain/Indicator: TA97, Metabolic Activation: NONE, Method: SPOT TEST): inactive; negative; mutagenic call [1]: inactive; negative; mutagenic call (Test System: AMES SALMONELLA TYPHIMURIUM, Strain/Indicator: TA98, Metabolic Activation: NONE, Method: SPOT TEST): inactive; negative; mutagenic call (Test System: AMES SALMONELLA TYPHIMURIUM, Strain/Indicator: TA100, Metabolic Activation: NONE, Method: PREINCUBATION): inactive; negative; mutagenic call (Test System: AMES SALMONELLA TYPHIMURIUM, Strain/Indicator: TA100, Metabolic Activation: NONE, Method: SPOT TEST): inactive; negative; mutagenic call (Test System: AMES SALMONELLA TYPHIMURIUM, Strain/Indicator: TA102, Metabolic Activation: NONE, Method: SPOT TEST): inactive; negative

With `CC(=O)Nc1cc2c(cc1[N+](=O)[O-])[nH]c1ccccc12` as the molecule, how does the mutagenic call [2] read?
The mutagenic call was “active; positive”.

And the mutagenic call (Test System: AMES SALMONELLA TYPHIMURIUM, Strain/Indicator: TA98, Metabolic Activation: RAT, LIVER, S-9, PHENOBARBITAL, Method: STANDARD PLATE)?
Its mutagenic call is “active; positive”.

What about the mutagenic call [3] of the same molecule?
Its mutagenic call is “inactive; negative”.

What about the mutagenic call (Test System: AMES SALMONELLA TYPHIMURIUM, Strain/Indicator: TA100, Metabolic Activation: RAT, LIVER, S-9, PHENOBARBITAL, Method: STANDARD PLATE) of the same molecule?
The mutagenic call was “inactive; negative”.

What about the mutagenic call [4] of the same molecule?
The mutagenic call was “inactive; negative”.

And the mutagenic call (Test System: AMES SALMONELLA TYPHIMURIUM, Strain/Indicator: TA1537, Metabolic Activation: RAT, LIVER, S-9, PHENOBARBITAL, Method: STANDARD PLATE)?
Its mutagenic call is “inactive; negative”.

And the mutagenic call (Test System: AMES SALMONELLA TYPHIMURIUM, Strain/Indicator: TA1538, Metabolic Activation: NONE, Method: STANDARD PLATE)?
Its mutagenic call is “active; positive”.

And the mutagenic call (Test System: AMES SALMONELLA TYPHIMURIUM, Strain/Indicator: TA1538, Metabolic Activation: RAT, LIVER, S-9, PHENOBARBITAL, Method: STANDARD PLATE)?
The mutagenic call was “active; positive”.

What about the mutagenic call (Test System: AMES SALMONELLA TYPHIMURIUM, Strain/Indicator: TA1977, Metabolic Activation: NONE, Method: STANDARD PLATE) of the same molecule?
Its mutagenic call is “inactive; negative”.

What about the mutagenic call (Test System: AMES SALMONELLA TYPHIMURIUM, Strain/Indicator: TA1977, Metabolic Activation: RAT, LIVER, S-9, PHENOBARBITAL, Method: STANDARD PLATE) of the same molecule?
The mutagenic call was “inactive; negative”.

How did the mutagenic call [3] turn out when `CC(C)CC(=O)Nc1snc2ccc(Cl)cc12` was run?
The mutagenic call was “inactive; negative”.

What about the mutagenic call (Test System: AMES SALMONELLA TYPHIMURIUM, Strain/Indicator: TA100, Metabolic Activation: S-9, Method: STANDARD PLATE) of the same molecule?
The mutagenic call was “inactive; negative”.

And the mutagenic call [4]?
The mutagenic call was “inactive; negative”.

And the mutagenic call (Test System: AMES SALMONELLA TYPHIMURIUM, Strain/Indicator: TA1537, Metabolic Activation: S-9, Method: STANDARD PLATE)?
Its mutagenic call is “inactive; negative”.

For `Cc1cnc2c(cc(C)c3c2nc(N)n3C)n1`, which mutagenic call [5] is on record?
The mutagenic call was “active; positive”.

With `CCOC(=O)C[n+]1csc2ccccc21` as the molecule, how does the mutagenic call [2] read?
Its mutagenic call is “inactive; negative”.

And the mutagenic call [3]?
Its mutagenic call is “inactive; negative”.

What about the mutagenic call [6] of the same molecule?
Its mutagenic call is “inactive; negative”.

And the mutagenic call (Test System: E.COLI, Strain/Indicator: WP2, Metabolic Activation: NONE, Method: STANDARD PLATE)?
The mutagenic call was “inactive; negative”.

What about the mutagenic call (Test System: E.COLI, Strain/Indicator: WP2 UVRA, Metabolic Activation: NONE, Method: STANDARD PLATE) of the same molecule?
The mutagenic call was “inactive; negative”.

For `COc1ccc(C(=O)n2ncc(Cl)c(Cl)c2=O)cc1`, which mutagenic call [2] is on record?
Its mutagenic call is “inactive; negative”.

And the mutagenic call [5]?
The mutagenic call was “inactive; negative”.

And the mutagenic call [3]?
Its mutagenic call is “inactive; negative”.

What about the mutagenic call (Test System: AMES SALMONELLA TYPHIMURIUM, Strain/Indicator: TA100, Metabolic Activation: RAT, LIVER, S-9, AROCLOR 1254, Method: STANDARD PLATE) of the same molecule?
Its mutagenic call is “inactive; negative”.

What about the mutagenic call [6] of the same molecule?
The mutagenic call was “inactive; negative”.

And the mutagenic call (Test System: AMES SALMONELLA TYPHIMURIUM, Strain/Indicator: TA1535, Metabolic Activation: RAT, LIVER, S-9, AROCLOR 1254, Method: STANDARD PLATE)?
The mutagenic call was “inactive; negative”.

What about the mutagenic call [4] of the same molecule?
The mutagenic call was “inactive; negative”.

What about the mutagenic call (Test System: AMES SALMONELLA TYPHIMURIUM, Strain/Indicator: TA1537, Metabolic Activation: RAT, LIVER, S-9, AROCLOR 1254, Method: STANDARD PLATE) of the same molecule?
The mutagenic call was “inactive; negative”.

Which mutagenic call (Test System: AMES SALMONELLA TYPHIMURIUM, Strain/Indicator: TA97, Metabolic Activation: NONE, Method: STANDARD PLATE) does the source give for `Cc1cccc2c1ccc1ccccc12` here?
The mutagenic call was “inactive; negative”.

What about the mutagenic call (Test System: AMES SALMONELLA TYPHIMURIUM, Strain/Indicator: TA97, Metabolic Activation: RAT, LIVER, S-9, PCB, Method: STANDARD PLATE) of the same molecule?
Its mutagenic call is “active; positive”.

And the mutagenic call [2]?
The mutagenic call was “inactive; negative”.

And the mutagenic call (Test System: AMES SALMONELLA TYPHIMURIUM, Strain/Indicator: TA98, Metabolic Activation: RAT, LIVER, S-9, PCB, Method: STANDARD PLATE)?
Its mutagenic call is “active; positive”.

And the mutagenic call [3]?
The mutagenic call was “inactive; negative”.

What about the mutagenic call (Test System: AMES SALMONELLA TYPHIMURIUM, Strain/Indicator: TA100, Metabolic Activation: RAT, LIVER, S-9, PCB, Method: STANDARD PLATE) of the same molecule?
The mutagenic call was “active; positive”.

With `N[C@@H](CSC(F)(F)C(F)F)C(=O)O` as the molecule, how does the mutagenic call (Test System: AMES SALMONELLA TYPHIMURIUM, Strain/Indicator: TA100, Metabolic Activation: RAT, KIDNEY, S-9, AROCLOR 1254, Method: STANDARD PLATE) read?
The mutagenic call was “inactive; negative”.

And the mutagenic call (Test System: AMES SALMONELLA TYPHIMURIUM, Strain/Indicator: TA2638, Metabolic Activation: NONE, Method: PREINCUBATION)?
The mutagenic call was “inactive; negative”.

For `O=S(=O)(O)OCc1cc2ccccc2c2ccc3ccccc3c12`, which mutagenic call [1] is on record?
The mutagenic call was “active; positive”.

Which mutagenic call [2] does the source give for `O=[N+]([O-])c1ccc2[nH]ccc2c1` here?
Its mutagenic call is “active; positive”.

With `C=C(C)[C@@H]1CC=C(C=O)CC1` as the molecule, how does the mutagenic call (Test System: AMES SALMONELLA TYPHIMURIUM, Strain/Indicator: TA97, Metabolic Activation: NONE, Method: PREINCUBATION) read?
The mutagenic call was “inactive; negative”.

What about the mutagenic call (Test System: AMES SALMONELLA TYPHIMURIUM, Strain/Indicator: TA97, Metabolic Activation: RAT, LIVER, S-9, AROCLOR 1254, Method: PREINCUBATION) of the same molecule?
The mutagenic call was “inactive; negative”.

And the mutagenic call (Test System: AMES SALMONELLA TYPHIMURIUM, Strain/Indicator: TA102, Metabolic Activation: NONE, Method: PREINCUBATION)?
Its mutagenic call is “inactive; negative”.

And the mutagenic call (Test System: AMES SALMONELLA TYPHIMURIUM, Strain/Indicator: TA102, Metabolic Activation: RAT, LIVER, S-9, AROCLOR 1254, Method: PREINCUBATION)?
Its mutagenic call is “inactive; negative”.

How did the mutagenic call [3] turn out when `O=C1OCC(C(Br)Br)=C1Cl` was run?
Its mutagenic call is “active; positive”.

For `CCN(CC)c1ccc(N=O)cc1`, which mutagenic call (Test System: AMES SALMONELLA TYPHIMURIUM, Strain/Indicator: TA100, Metabolic Activation: NONE, Method: FLUCTUATION TEST) is on record?
The mutagenic call was “active; positive”.
